Where two headings read alike, the source gives them in different places.
How the values were obtained:
Test in all cases: Kinase panel
DMPK(h) = molecular target: T1, DMPK(h) (Homo sapiens, UniProt Q09013); format: biochemical
T1 construct: purchased Millipore KinaseProfiler
T1 sequence (Q09013 1-629): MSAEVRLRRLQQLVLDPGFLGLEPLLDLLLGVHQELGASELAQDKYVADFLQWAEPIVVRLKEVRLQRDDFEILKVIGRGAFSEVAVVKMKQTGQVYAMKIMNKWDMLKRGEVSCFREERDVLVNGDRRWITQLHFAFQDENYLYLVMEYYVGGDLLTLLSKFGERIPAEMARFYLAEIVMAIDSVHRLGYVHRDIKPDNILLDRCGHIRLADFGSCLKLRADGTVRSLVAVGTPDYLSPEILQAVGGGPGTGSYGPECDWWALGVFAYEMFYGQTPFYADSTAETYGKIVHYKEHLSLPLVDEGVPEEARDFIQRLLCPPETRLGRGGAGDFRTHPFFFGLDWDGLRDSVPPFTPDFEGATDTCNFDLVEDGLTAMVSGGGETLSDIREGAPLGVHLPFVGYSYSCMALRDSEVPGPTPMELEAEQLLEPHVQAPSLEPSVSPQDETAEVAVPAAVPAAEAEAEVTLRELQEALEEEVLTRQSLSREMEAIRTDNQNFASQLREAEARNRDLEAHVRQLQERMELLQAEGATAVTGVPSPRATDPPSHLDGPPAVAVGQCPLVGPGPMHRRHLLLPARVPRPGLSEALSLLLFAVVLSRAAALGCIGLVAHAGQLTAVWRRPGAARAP

PKCβII(h) = molecular target: T2, PKCβII(h) (Homo sapiens, UniProt P05771); format: biochemical
T2 construct: purchased Millipore KinaseProfiler

FGFR2(h) = molecular target: T3, FGFR2(h) (Homo sapiens, UniProt P21802); format: biochemical
T3 construct: purchased Millipore KinaseProfiler

CSK(h) = molecular target: T4, CSK(h) (Homo sapiens, UniProt P41240); format: biochemical
T4 construct: purchased Millipore KinaseProfiler

HIPK3(h) = molecular target: T5, HIPK3(h) (Homo sapiens, UniProt Q9H422); format: biochemical
T5 construct: purchased Millipore KinaseProfiler

PKCθ(h) = molecular target: T6, PKCθ(h) (Homo sapiens, UniProt Q04759); format: biochemical
T6 construct: purchased Millipore KinaseProfiler

IGF-1R(h) = molecular target: T7, IGF-1R(h) (Homo sapiens, UniProt P08069); format: biochemical
T7 construct: purchased Millipore KinaseProfiler

EphA1(h) = molecular target: T8, EphA1(h) (Homo sapiens, UniProt P21709); format: biochemical
T8 construct: purchased Millipore KinaseProfiler
T8 sequence (P21709 26-976): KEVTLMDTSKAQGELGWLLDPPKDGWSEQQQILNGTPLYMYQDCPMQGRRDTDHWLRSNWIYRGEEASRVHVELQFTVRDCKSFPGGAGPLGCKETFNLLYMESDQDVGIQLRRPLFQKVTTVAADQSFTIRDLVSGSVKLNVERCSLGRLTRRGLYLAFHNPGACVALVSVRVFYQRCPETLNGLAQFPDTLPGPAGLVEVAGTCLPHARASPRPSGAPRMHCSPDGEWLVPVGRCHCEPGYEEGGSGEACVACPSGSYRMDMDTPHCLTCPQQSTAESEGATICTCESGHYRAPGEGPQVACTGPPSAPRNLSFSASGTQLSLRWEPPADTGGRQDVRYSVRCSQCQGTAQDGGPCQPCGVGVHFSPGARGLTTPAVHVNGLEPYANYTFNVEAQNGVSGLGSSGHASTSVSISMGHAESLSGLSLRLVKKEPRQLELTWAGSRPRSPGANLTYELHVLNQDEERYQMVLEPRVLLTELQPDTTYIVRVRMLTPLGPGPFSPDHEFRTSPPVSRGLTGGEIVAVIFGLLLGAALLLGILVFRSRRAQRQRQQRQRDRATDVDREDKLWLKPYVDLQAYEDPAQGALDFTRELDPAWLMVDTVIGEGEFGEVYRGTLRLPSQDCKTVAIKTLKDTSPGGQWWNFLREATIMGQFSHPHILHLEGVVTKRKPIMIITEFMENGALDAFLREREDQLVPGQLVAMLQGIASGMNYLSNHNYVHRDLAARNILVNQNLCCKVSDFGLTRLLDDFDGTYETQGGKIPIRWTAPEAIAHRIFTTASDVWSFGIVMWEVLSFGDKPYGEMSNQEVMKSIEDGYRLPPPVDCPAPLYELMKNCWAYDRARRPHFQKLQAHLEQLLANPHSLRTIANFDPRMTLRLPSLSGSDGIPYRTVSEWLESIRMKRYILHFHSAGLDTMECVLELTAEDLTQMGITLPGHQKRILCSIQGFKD

Pim-3(h) = molecular target: T9, Pim-3(h) (Homo sapiens, UniProt Q86V86); format: biochemical
T9 construct: purchased Millipore KinaseProfiler

AMPK(r) = format: biochemical, rat
KDR(h) = molecular target: T10, KDR(h) (Homo sapiens, UniProt P35968); format: biochemical
T10 construct: purchased Millipore KinaseProfiler

Abl (H396P) (h) = molecular target: T11, Abl (H396P) (h) (Homo sapiens, UniProt P00519, H396P); format: biochemical
T11 construct: purchased Millipore KinaseProfiler

Ron(h) = molecular target: T12, Ron(h) (Homo sapiens, UniProt Q04912); format: biochemical
T12 construct: purchased Millipore KinaseProfiler

EGFR(h) = molecular target: T13, EGFR(h) (Homo sapiens, UniProt P00533); format: biochemical
T13 construct: purchased Millipore KinaseProfiler

Rsk1(h) = molecular target: T14, Rsk1(h) (Homo sapiens, UniProt Q15418); format: biochemical
T14 construct: purchased Millipore KinaseProfiler

T7 sequence (P08069 31-1367): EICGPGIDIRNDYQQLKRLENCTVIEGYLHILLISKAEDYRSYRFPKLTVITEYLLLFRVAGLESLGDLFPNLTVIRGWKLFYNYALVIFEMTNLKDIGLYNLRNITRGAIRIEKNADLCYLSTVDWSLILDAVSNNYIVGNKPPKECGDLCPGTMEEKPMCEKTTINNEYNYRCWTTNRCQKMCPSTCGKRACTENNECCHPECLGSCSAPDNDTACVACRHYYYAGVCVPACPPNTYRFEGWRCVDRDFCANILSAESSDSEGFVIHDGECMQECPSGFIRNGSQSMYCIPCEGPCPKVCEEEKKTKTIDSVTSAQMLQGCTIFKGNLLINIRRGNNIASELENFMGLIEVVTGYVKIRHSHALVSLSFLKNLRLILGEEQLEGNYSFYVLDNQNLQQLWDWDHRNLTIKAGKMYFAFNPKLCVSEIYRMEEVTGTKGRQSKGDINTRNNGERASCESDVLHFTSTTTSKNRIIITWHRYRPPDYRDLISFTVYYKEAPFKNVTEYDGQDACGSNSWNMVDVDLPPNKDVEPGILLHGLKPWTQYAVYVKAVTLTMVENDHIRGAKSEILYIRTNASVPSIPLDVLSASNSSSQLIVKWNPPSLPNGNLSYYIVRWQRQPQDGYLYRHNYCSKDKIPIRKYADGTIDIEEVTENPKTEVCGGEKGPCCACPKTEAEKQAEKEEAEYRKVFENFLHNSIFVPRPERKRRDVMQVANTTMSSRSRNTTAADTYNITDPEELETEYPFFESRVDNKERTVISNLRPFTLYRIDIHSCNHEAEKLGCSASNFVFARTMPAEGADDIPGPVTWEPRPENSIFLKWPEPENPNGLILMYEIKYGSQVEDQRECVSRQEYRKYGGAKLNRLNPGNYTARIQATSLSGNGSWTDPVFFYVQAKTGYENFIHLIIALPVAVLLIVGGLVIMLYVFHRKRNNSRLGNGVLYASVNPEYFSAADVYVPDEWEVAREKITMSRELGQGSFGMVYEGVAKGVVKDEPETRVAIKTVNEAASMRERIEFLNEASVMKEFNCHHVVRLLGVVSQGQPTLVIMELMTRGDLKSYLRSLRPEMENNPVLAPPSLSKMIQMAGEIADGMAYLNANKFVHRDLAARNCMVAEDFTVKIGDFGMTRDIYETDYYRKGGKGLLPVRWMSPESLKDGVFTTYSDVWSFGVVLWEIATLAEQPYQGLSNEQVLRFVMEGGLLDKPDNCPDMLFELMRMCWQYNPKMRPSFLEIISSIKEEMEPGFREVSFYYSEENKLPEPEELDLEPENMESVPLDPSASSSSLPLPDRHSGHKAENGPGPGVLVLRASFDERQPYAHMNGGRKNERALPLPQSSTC
T3 sequence (P21802 22-821): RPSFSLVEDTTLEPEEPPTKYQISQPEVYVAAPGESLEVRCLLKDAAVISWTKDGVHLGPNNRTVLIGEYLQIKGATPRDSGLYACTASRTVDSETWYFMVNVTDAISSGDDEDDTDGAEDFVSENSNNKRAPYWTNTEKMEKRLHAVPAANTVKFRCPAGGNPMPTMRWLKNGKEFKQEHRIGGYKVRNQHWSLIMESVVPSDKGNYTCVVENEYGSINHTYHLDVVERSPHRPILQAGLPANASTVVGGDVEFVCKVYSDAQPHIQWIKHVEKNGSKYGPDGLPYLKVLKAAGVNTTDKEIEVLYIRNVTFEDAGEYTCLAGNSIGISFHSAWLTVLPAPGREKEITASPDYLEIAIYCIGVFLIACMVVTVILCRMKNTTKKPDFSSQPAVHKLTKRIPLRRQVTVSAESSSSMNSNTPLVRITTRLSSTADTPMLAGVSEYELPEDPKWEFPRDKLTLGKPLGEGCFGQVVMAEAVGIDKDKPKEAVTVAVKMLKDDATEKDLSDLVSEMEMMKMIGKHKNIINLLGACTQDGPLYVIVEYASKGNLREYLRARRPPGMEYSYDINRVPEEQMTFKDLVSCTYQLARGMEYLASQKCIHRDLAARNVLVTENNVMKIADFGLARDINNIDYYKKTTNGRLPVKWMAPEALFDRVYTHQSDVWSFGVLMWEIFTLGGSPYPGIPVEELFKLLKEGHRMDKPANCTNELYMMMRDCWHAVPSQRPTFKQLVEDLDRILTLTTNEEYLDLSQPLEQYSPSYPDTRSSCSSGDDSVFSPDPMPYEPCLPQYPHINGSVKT
T10 sequence (P35968 20-1356): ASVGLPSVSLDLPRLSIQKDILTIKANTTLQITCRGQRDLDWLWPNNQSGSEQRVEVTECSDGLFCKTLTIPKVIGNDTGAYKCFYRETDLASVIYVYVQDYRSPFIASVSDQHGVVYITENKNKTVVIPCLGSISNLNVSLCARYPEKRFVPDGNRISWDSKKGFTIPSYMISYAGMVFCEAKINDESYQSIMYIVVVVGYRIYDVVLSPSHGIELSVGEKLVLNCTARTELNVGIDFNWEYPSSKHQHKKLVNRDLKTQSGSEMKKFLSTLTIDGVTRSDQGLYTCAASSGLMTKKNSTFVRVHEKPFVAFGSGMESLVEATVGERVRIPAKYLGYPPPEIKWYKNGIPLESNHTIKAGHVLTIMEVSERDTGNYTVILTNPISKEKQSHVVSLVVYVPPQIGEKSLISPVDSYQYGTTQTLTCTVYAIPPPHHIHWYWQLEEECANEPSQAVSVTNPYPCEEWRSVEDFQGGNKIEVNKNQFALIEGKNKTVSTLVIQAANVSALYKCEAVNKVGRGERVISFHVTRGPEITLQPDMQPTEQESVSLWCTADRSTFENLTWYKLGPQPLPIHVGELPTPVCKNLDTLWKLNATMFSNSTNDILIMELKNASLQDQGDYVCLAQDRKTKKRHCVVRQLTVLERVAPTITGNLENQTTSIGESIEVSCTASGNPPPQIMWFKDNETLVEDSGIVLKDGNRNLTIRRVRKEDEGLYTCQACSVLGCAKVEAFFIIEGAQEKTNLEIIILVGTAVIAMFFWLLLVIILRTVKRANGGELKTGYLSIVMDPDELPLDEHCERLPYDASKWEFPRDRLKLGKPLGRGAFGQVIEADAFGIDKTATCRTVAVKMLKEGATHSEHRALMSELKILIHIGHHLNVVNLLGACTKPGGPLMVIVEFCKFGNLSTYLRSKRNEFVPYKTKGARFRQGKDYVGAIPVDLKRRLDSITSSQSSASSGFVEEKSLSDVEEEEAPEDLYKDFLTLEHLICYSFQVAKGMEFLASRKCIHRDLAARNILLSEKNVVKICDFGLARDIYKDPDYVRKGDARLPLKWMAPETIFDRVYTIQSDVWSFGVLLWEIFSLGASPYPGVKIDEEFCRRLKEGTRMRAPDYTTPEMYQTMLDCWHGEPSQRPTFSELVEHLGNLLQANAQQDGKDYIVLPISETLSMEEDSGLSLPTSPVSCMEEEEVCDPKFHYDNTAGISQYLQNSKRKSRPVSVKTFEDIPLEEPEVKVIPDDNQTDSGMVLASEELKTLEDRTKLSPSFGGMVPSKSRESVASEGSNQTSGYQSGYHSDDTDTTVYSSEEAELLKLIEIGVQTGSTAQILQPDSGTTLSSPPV
T2 sequence (P05771 1-673 isoform P05771-2): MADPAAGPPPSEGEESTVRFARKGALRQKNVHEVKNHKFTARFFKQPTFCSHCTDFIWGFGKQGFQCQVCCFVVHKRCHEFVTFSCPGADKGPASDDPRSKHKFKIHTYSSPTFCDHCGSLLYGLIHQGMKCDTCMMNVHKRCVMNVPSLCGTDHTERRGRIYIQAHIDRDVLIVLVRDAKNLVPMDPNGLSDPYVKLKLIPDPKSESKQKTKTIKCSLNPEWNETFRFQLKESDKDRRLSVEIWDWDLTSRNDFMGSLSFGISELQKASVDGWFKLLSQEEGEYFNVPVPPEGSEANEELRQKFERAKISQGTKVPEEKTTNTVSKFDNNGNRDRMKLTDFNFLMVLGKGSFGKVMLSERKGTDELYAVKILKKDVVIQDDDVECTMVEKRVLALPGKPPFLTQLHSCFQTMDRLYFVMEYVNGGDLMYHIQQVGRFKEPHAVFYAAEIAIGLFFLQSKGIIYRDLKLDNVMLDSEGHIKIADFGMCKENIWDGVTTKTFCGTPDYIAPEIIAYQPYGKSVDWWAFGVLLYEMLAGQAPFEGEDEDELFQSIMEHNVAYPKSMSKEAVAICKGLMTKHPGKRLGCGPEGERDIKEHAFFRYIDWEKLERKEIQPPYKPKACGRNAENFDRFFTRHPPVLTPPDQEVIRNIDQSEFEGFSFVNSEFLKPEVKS
T4 sequence (P41240 whole entry): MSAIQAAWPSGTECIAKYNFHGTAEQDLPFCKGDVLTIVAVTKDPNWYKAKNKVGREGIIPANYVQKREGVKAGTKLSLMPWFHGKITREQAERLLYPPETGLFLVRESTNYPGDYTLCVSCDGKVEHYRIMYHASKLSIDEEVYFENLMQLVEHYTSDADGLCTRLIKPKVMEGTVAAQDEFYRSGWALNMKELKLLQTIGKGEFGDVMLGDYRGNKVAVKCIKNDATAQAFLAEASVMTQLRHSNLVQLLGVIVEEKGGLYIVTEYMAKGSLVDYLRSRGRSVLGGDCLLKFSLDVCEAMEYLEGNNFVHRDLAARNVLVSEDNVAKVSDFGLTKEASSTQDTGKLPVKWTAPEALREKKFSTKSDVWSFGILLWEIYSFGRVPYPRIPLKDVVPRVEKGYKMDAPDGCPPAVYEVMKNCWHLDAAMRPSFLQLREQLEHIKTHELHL

SMILES: Cn1ncc(Cl)c1-c1cc(C(=O)N[C@H](CN)Cc2cccc(F)c2)sc1Cl [GSK2110183]
- inhibition at 0.5 µM (DMPK(h)): -8%
- inhibition at 10 µM (DMPK(h)): 1%
- inhibition at 0.5 µM (PKCβII(h)): 2%
- inhibition at 10 µM (PKCβII(h)): 75%
- inhibition at 0.5 µM (FGFR2(h)): 0%
- inhibition at 10 µM (FGFR2(h)): -2%
- inhibition at 0.5 µM (CSK(h)): 11%
- inhibition at 10 µM (CSK(h)): 15%
- inhibition at 0.5 µM (HIPK3(h)): -3%
- inhibition at 10 µM (HIPK3(h)): 72%
- inhibition at 0.5 µM (PKCθ(h)): 62%
- inhibition at 10 µM (PKCθ(h)): 94%
- inhibition at 0.5 µM (IGF-1R(h)): 7%
- inhibition at 10 µM (IGF-1R(h)): 25%
- inhibition at 0.5 µM (EphA1(h)): -14%
- inhibition at 10 µM (EphA1(h)): -5%
- inhibition at 0.5 µM (Pim-3(h)): -25%
- inhibition at 10 µM (Pim-3(h)): -13%
- % Inhibition (AMPK(r); 0.5 µM): 3%
- % Inhibition (AMPK(r); 10 µM): 56%
- inhibition at 0.5 µM (KDR(h)): 13%
- inhibition at 10 µM (KDR(h)): 7%
- inhibition at 0.5 µM (Abl (H396P) (h)): -2%
- inhibition at 10 µM (Abl (H396P) (h)): 10%
- inhibition at 0.5 µM (Ron(h)): 12%
- inhibition at 10 µM (Ron(h)): 30%
- inhibition at 0.5 µM (EGFR(h)): -4%
- inhibition at 10 µM (EGFR(h)): 2%
- inhibition at 0.5 µM (Rsk1(h)): 49%
- inhibition at 10 µM (Rsk1(h)): 89%

SMILES: Cn1ncc(Cl)c1-c1cc(C(=O)N[C@H](CN)Cc2ccc(F)c(F)c2)oc1Cl [GSK2141795]
- inhibition at 0.5 µM (DMPK(h); 0.5 µM, read-out: % Inhibition): -12%
- inhibition at 10 µM (DMPK(h); 10 µM, read-out: % Inhibition): -5%
- inhibition at 0.5 µM (PKCβII(h); 0.5 µM, read-out: % Inhibition): 44%
- inhibition at 10 µM (PKCβII(h); 10 µM, read-out: % Inhibition): 91%
- inhibition at 0.5 µM (FGFR2(h); 0.5 µM, read-out: % Inhibition): -8%
- inhibition at 10 µM (FGFR2(h); 10 µM, read-out: % Inhibition): 2%
- inhibition at 0.5 µM (CSK(h); 0.5 µM, read-out: % Inhibition): 0%
- inhibition at 10 µM (CSK(h); 10 µM, read-out: % Inhibition): -14%
- inhibition at 0.5 µM (HIPK3(h); 0.5 µM, read-out: % Inhibition): 7%
- inhibition at 10 µM (HIPK3(h); 10 µM, read-out: % Inhibition): 63%
- inhibition at 0.5 µM (PKCθ(h); 0.5 µM, read-out: % Inhibition): 82%
- inhibition at 10 µM (PKCθ(h); 10 µM, read-out: % Inhibition): 94%
- inhibition at 0.5 µM (IGF-1R(h); 0.5 µM, read-out: % Inhibition): 6%
- inhibition at 10 µM (IGF-1R(h); 10 µM, read-out: % Inhibition): 31%
- inhibition at 0.5 µM (EphA1(h); 0.5 µM, read-out: % Inhibition): 4%
- inhibition at 10 µM (EphA1(h); 10 µM, read-out: % Inhibition): 53%
- inhibition at 0.5 µM (Pim-3(h); 0.5 µM, read-out: % Inhibition): -10%
- inhibition at 10 µM (Pim-3(h); 10 µM, read-out: % Inhibition): -4%
- % Inhibition (AMPK(r); 0.5 µM): 10%
- % Inhibition (AMPK(r); 10 µM): 76%
- inhibition at 0.5 µM (KDR(h); 0.5 µM, read-out: % Inhibition): -6%
- inhibition at 10 µM (KDR(h); 10 µM, read-out: % Inhibition): -3%
- inhibition at 0.5 µM (Abl (H396P) (h); 0.5 µM, read-out: % Inhibition): 4%
- inhibition at 10 µM (Abl (H396P) (h); 10 µM, read-out: % Inhibition): 1%
- inhibition at 0.5 µM (Ron(h); 0.5 µM, read-out: % Inhibition): 5%
- inhibition at 10 µM (Ron(h); 10 µM, read-out: % Inhibition): 73%
- inhibition at 0.5 µM (EGFR(h); 0.5 µM, read-out: % Inhibition): -42%
- inhibition at 10 µM (EGFR(h); 10 µM, read-out: % Inhibition): -40%
- inhibition at 0.5 µM (Rsk1(h); 0.5 µM, read-out: % Inhibition): 44%
- inhibition at 10 µM (Rsk1(h); 10 µM, read-out: % Inhibition): 91%

— article PMC4076210, “Discovery of Novel AKT Inhibitors with Enhanced Anti-Tumor Effects in Combination with the MEK Inhibitor” (PLoS ONE, 2014)
